The results in this text go back to patent publication US6506744B1, “Benzazepinone-derivatives” (Hoffmann-La Roche Inc., priority 1999, dated 2003).

Turning to `O=C(O)C[C@@H](NC(=O)CN1C[C@H](c2ccccc2)Oc2ccc(NC(=O)NCc3ccccc3)cc2C1=O)c1ccccc1` [Example 21, (R,S)-3-{2-[7-(3-benzyl-ureido)-5-oxo-2-phenyl-2,3-dihydro-5H-benzo[f][1,4]oxazepin-4-yl]-acetylamino}-3-phenyl-propionic acid], the melting point fell in the range of 138 to 140 °C.
Consider `CN1C(=O)CN(CC(=O)NCCC(=O)O)C(=O)c2cc(NC(=N)N)ccc21.Cl`, for which the melting point amounted to 126 °C.
On to `CN1C(=O)CN(CC(=O)NCCC(=O)O)C(=O)c2cc(NC(=O)NCc3ccccc3)ccc21` [Example 3, 3-[2-[7-(3-benzyl-ureido)-1-methyl-2,5-dioxo-1,2,3,5-tetrahydro-benzo[e][1,4]diazepin-4-yl]-acetylamino]-propionic acid], for which the melting point was 116 °C (dec.).

Broadly, the melting point is the temperature of the solid-liquid transition.
